Test results from PubChem BioAssay AID330 (DTP/NCI, 2004).
Where “and” joins values, the source holds several entries; their conditions need not be identical. Equal values may be shown once. Inconclusive results and toxic doses are left out. Rule for the calls: active = survival T/C of 150% or more; inactive = T/C below 125% in these data.

Test system: P388 leukemia ip, CD2F1 mice, survival T/C
Test: NCI In Vivo Anticancer Drug Screen. Data for tumor model P388 Leukemia (intraperitoneal) in CD2F1 (CDF1) mice
Details: endpoint: median survival time, higher = longer survival
Method in brief: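 Mice carrying the transplanted tumor received test compound or vehicle. Survival was recorded in each group, and the value is the treated-group measurement divided by that of the vehicle-treated control group.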

[1] = dose: 50.0 mg/kg/injection, schedule: Q01DX005 (ip), vehicle: Klucel (hydroxypropylcellulose) (HPC)
[2] = dose: 100.0 mg/kg/injection, schedule: Q01DX005 (ip), vehicle: Klucel (hydroxypropylcellulose) (HPC)
[3] = dose: 200.0 mg/kg/injection, schedule: Q01DX005 (ip), vehicle: Klucel (hydroxypropylcellulose) (HPC)
[4] = dose: 100.0 mg/kg/injection, schedule: Q04DX003 (ip), vehicle: saline with Tween-80
[5] = dose: 200.0 mg/kg/injection, schedule: Q04DX003 (ip), vehicle: saline with Tween-80
[6] = dose: 50.0 mg/kg/injection, schedule: Q01DX009 (ip), vehicle: Klucel (hydroxypropylcellulose) (HPC)
[7] = dose: 100.0 mg/kg/injection, schedule: Q01DX009 (ip), vehicle: Klucel (hydroxypropylcellulose) (HPC)
[8] = dose: 200.0 mg/kg/injection, schedule: Q01DX009 (ip), vehicle: Klucel (hydroxypropylcellulose) (HPC)
[9] = dose: 100.0 mg/kg/injection, schedule: Q01DX001 (ip), vehicle: saline with Tween-80
[10] = dose: 200.0 mg/kg/injection, schedule: Q01DX001 (ip), vehicle: saline with Tween-80
[11] = dose: 12.5 mg/kg/injection, schedule: Q04DX003 (ip), vehicle: other
[12] = dose: 25.0 mg/kg/injection, schedule: Q04DX003 (ip), vehicle: other
[13] = dose: 25.0 mg/kg/injection, schedule: Q01DX009 (ip), vehicle: saline with Tween-80
[14] = dose: 50.0 mg/kg/injection, schedule: Q01DX009 (ip), vehicle: saline with Tween-80
[15] = dose: 100.0 mg/kg/injection, schedule: Q01DX009 (ip), vehicle: saline with Tween-80

Measured: T/C

Cc1cc(CSC(=N)N)c(C)cc1CSC(=N)N
inactive: dose: 5.0 mg/kg/injection, schedule: Q01DX009 (ip), vehicle: saline with Tween-80 100 % of control | dose: 10.0 mg/kg/injection, schedule: Q01DX009 (ip), vehicle: saline with Tween-80 109 % of control | dose: 10.0 mg/kg/injection, schedule: Q04DX003 (ip), vehicle: saline with Tween-80 108 % of control | dose: 20.0 mg/kg/injection, schedule: Q01DX009 (ip), vehicle: saline with Tween-80 109 % of control | dose: 20.0 mg/kg/injection, schedule: Q04DX003 (ip), vehicle: saline with Tween-80 104 % of control | dose: 40.0 mg/kg/injection, schedule: Q04DX003 (ip), vehicle: saline with Tween-80 116 % of control

C=C1CC2(CC3C(CC2C)C3(C)C)OC1=O (centres undefined)
inactive: dose: 100.0 mg/kg/injection, schedule: Q01DX001 (ip), vehicle: saline 101 % of control | dose: 200.0 mg/kg/injection, schedule: Q01DX001 (ip), vehicle: saline 101 % of control | dose: 400.0 mg/kg/injection, schedule: Q01DX001 (ip), vehicle: saline 104 % of control

COc1ccc(Nc2nnc(-c3ccc4c(c3)OCO4)o2)cc1
inactive: [1] 100 % of control | [2] 93 % of control | [3] 97 % of control

CCN(CC)c1nc(Cl)nc(NC(C)C)n1
inactive: [4] 100 % of control | [5] 95 % of control

CCNc1ccc2c(c1)C(=O)N(OS(C)(=O)=O)C2=O
inactive: dose: 50.0 mg/kg/injection, schedule: Q01DX005 (ip), vehicle: saline with Tween-80 97 % of control | dose: 100.0 mg/kg/injection, schedule: Q01DX005 (ip), vehicle: saline with Tween-80 92 % of control

O=C(O)C(CSC(c1ccccc1)(c1ccccc1)c1ccccc1)NC(c1ccccc1)(c1ccccc1)c1ccccc1 (centres undefined)
inactive: dose: 12.5 mg/kg/injection, schedule: Q01DX009 (ip), vehicle: other 93 % of control | dose: 25.0 mg/kg/injection, schedule: Q01DX009 (ip), vehicle: other 94 % of control | dose: 50.0 mg/kg/injection, schedule: Q01DX009 (ip), vehicle: other 93 % of control | dose: 100.0 mg/kg/injection, schedule: Q01DX009 (ip), vehicle: other 98 % of control

CCCCCCCCCCCC(=O)C(=O)c1ccc(O)c(C)c1O
inactive: [6] 107 % of control | [7] 105 % of control | [8] 110 % of control

CCCCCCCCCCCCCCCCCC[N+]1(CCC(C)C)CCSCC1
inactive: [9] 88 % of control | [10] 97 % of control

Cc1c2ccccc2c(C)c2c1cc[n+]1ccccc21
inactive: dose: 6.25 mg/kg/injection, schedule: Q04DX003 (ip), vehicle: other 105 % of control | [11] 103 % of control | [12] 99 % of control

Nc1cc2c(c[n+](CCO)c3ccccc23)c2ccccc12
inactive: [11] 118 % of control | [12] 111 % of control | dose: 50.0 mg/kg/injection, schedule: Q04DX003 (ip), vehicle: other 118 % of control | dose: 100.0 mg/kg/injection, schedule: Q04DX003 (ip), vehicle: other 102 % of control

Cc1c(NC(=S)Nc2ccc(Cl)c(Cl)c2)c(=O)n(-c2ccccc2)n1C
inactive: [6] 106 % of control | [7] 93 % of control | [8] 88 % of control

N[C@@H](CSSc1ccccc1C(=O)O)C(=O)O
inactive: dose: 100.0 mg/kg/injection, schedule: Q04DX002 (ip), vehicle: Klucel (hydroxypropylcellulose) (HPC) 103 % of control | dose: 200.0 mg/kg/injection, schedule: Q04DX002 (ip), vehicle: Klucel (hydroxypropylcellulose) (HPC) 107 % of control | dose: 400.0 mg/kg/injection, schedule: Q04DX002 (ip), vehicle: Klucel (hydroxypropylcellulose) (HPC) 105 % of control

CC(C(=O)O)N1C(=O)CNC1=O (centres undefined)
inactive: [1] 93 % of control | [2] 91 % of control | [3] 100 % of control

CC/C(=C1/C=C(O)C(=O)C=C1OC)c1ccc(OC)cc1
inactive: dose: 2.5 mg/kg/injection, schedule: Q01DX009 (ip), vehicle: saline + alcohol 100 % of control | dose: 5.0 mg/kg/injection, schedule: Q01DX009 (ip), vehicle: saline + alcohol 101 % of control | dose: 10.0 mg/kg/injection, schedule: Q01DX009 (ip), vehicle: saline + alcohol 103 % of control

C=C(C(=O)O)C(=O)O
inactive: dose: 50.0 mg/kg/injection, schedule: Q01DX009 (ip), vehicle: saline 105 % of control | dose: 50.0 mg/kg/injection, schedule: Q04DX003 (ip), vehicle: saline 115 % of control | dose: 100.0 mg/kg/injection, schedule: Q01DX009 (ip), vehicle: saline 110 % of control | dose: 100.0 mg/kg/injection, schedule: Q04DX003 (ip), vehicle: saline 105 % of control | dose: 200.0 mg/kg/injection, schedule: Q04DX003 (ip), vehicle: saline 115 % of control

Nc1nc2ncnc(N)c2nc1-c1ccc(N(CCO)CCO)cc1
inactive: dose: 60.0 mg/kg/injection, schedule: Q01DX005 (ip), vehicle: Klucel (hydroxypropylcellulose) (HPC) 91 % of control | dose: 120.0 mg/kg/injection, schedule: Q01DX005 (ip), vehicle: Klucel (hydroxypropylcellulose) (HPC) 90 % of control | dose: 240.0 mg/kg/injection, schedule: Q01DX005 (ip), vehicle: Klucel (hydroxypropylcellulose) (HPC) 91 % of control

[O-]c1ccccc1C=NCCN1CC1.[O-]c1ccccc1C=NCCN1CC1.[Zn+2]
inactive: dose: 6.25 mg/kg/injection, schedule: Q01DX009 (ip), vehicle: saline with Tween-80 91 % of control | dose: 12.5 mg/kg/injection, schedule: Q01DX009 (ip), vehicle: saline with Tween-80 97 % of control | [13] 100 % of control

CN(C)c1ccc(N=Nc2ccc([As](=O)(O)O)cc2)cc1
inactive: dose: 0.5 mg/kg/injection, schedule: Q01DX009 (ip), vehicle: saline with Tween-80 100 % of control | dose: 1.0 mg/kg/injection, schedule: Q01DX009 (ip), vehicle: saline with Tween-80 95 % of control

CN(C)CCC(=O)C(=Cc1ccc(Cl)c(Cl)c1)C(=O)CCN(C)C
inactive: dose: 50.0 mg/kg/injection, schedule: Q01DX005 (ip), vehicle: saline 104 % of control | dose: 100.0 mg/kg/injection, schedule: Q01DX005 (ip), vehicle: saline 109 % of control

OC1C=CC2C(CC1)C1(c3ccccc3)OC2(c2ccccc2)c2ccccc21 (centres undefined)
inactive: [1] 100 % of control | [2] 98 % of control | [3] 99 % of control

CN(CC#N)Cc1ccccc1
inactive: dose: 7.5 mg/kg/injection, schedule: Q01DX005 (ip), vehicle: saline with Tween-80 95 % of control | dose: 15.0 mg/kg/injection, schedule: Q01DX005 (ip), vehicle: saline with Tween-80 96 % of control | dose: 30.0 mg/kg/injection, schedule: Q01DX005 (ip), vehicle: saline with Tween-80 97 % of control | dose: 60.0 mg/kg/injection, schedule: Q01DX005 (ip), vehicle: saline with Tween-80 103 % of control

C/C(=N\N=C(\[Se])N1CCN(c2ccccn2)CC1)c1ccccn1
inactive: dose: 12.5 mg/kg/injection, schedule: Q04DX003 (ip), vehicle: saline with Tween-80 108 % of control | dose: 25.0 mg/kg/injection, schedule: Q04DX003 (ip), vehicle: saline with Tween-80 109 % of control and 116 % of control | dose: 50.0 mg/kg/injection, schedule: Q04DX003 (ip), vehicle: saline with Tween-80 113 % of control | [4] 115 % of control and 124 % of control | [5] 115 % of control

O=C(/C=C/c1ccccc1)c1ccccc(=O)c1O
inactive: [1] 105 % of control | [2] 113 % of control | [3] 104 % of control

NC(Cc1ccc(Cl)cc1)c1nn[nH]n1 (centres undefined)
inactive: [13] 99 % of control | [14] 99 % of control | [15] 101 % of control

O=P(=O)OP(=O)=O.[O]=[W](=[O])=[O]
inactive: [13] 100 % of control | [14] 100 % of control | [15] 95 % of control

COc1cc(-c2nn(CN3CCOCC3)c(=S)o2)cc(OC)c1OC
inactive: [1] 96 % of control | [2] 97 % of control | [3] 99 % of control

C/C=C/Cc1nnc(C)c2c(C)[nH]nc12
inactive: [14] 100 % of control | [15] 96 % of control | dose: 200.0 mg/kg/injection, schedule: Q01DX009 (ip), vehicle: saline with Tween-80 102 % of control

Cc1ccc(N=Nc2c(-c3ccccc3)nn(C(N)=S)c2C)cc1
inactive: [9] 92 % of control | [10] 97 % of control | dose: 400.0 mg/kg/injection, schedule: Q01DX001 (ip), vehicle: saline with Tween-80 103 % of control
